# Measurements published in patent US20260041753A1, “RESPIRATORY SYNCYTIAL VIRUS SURFACE GL[…], CONJUGATES, AND USES THEREOF” (Dana-Farber Cancer Institute, Inc., priority 2023, published 2026).
# Read-outs that look alike come from different tables or passages of the source. Where a SMILES comes first, the peptide text is derived from it. Bridges are numbered along the chain shown (N, C = ends). Primed or numbered codes have the meaning given here. Where no end group is shown, it is not given here. Side-chain parts run from the residue outwards. [ ]: non-standard residue; d: D form. The star is where a group is joined. ξ: configuration not given here. thiocholesterol = thiocholesterol moiety attached via the PEG4 linker to the lysine epsilon side chain, CC(C)CCC[C@@H](C)[C@H]1CC[C@H]2[C@@H]3CC=C4C[C@@H](S*)CC[C@]4(C)[C@H]3CC[C@]12C; Acetyl(2-S-cholesteryl) = CC(C)CCC[C@@H](C)[C@H]1CC[C@H]2[C@@H]3CC=C4C[C@@H](SCC(=O)*)CC[C@]4(C)[C@H]3CC[C@]12C; Acetyl(2-S-3ξ-cholesteryl) = CC(C)CCC[C@@H](C)[C@H]1CC[C@H]2[C@@H]3CC=C4CC(SCC(=O)*)CC[C@]4(C)[C@H]3CC[C@]12C; PEG20 = NCCOCCOCCOCCOCCOCCOCCOCCOCCOCCOCCOCCOCCOCCOCCOCCOCCOCCOCCOCCOCCC(=O)O; PEG16 = NCCOCCOCCOCCOCCOCCOCCOCCOCCOCCOCCOCCOCCOCCOCCOCCOCCC(=O)O; PEG4′ = 4x polyethylene glycol linker; R8 = C=CCCCCCC[C@@](C)(N)C(=O)O; PEG4 = NCCOCCOCCOCCOCCC(=O)O; S5 = C=CCCC[C@](C)(N)C(=O)O
# Experiments:
# [1] = tested on: live human Respiratory Syncytial Virus with Green Fluorescent Protein (RSV-GFP1); format: cell-based; conditions: for antiviral activity in the GFP-RSV live virus assay (staple and PEG scanning): dose of 2 μM, RSV-GFP in A549 cells after 48 hours (FIG. 15); for improvement in anti-viral activity compared to the singly stapled RSV HR2 peptide of SEQ ID NO: 4: versus single staple alone with an additional 6 HR2 amino acids at the C-terminus
# Method: Antiviral Efficacy Assays: The efficiency of the peptide-cholesterol conjugates of the invention in preventing and treating infection of live human Respiratory Syncytial Virus with Green Fluorescent Protein (RSV-GFP1) are evaluated in monolayer cell cultures. A549 cells plated in 384-well format are treated for 30 min with a serial dilution of stapled peptides (e.g. 1-5 […] or a fixed dose, e.g. […]), performed in quadruplicate, followed by addition of GFP-RSV live virus assay (0.75-1.25 μL of virus per well) and incubation for 48-72 hours. Infected cells are then washed with PBS. Hoechst 33342 (cell permeable nuclear dye) and DRAQ7 (cell impermeable nuclear dye) are added and the plate imaged on a Molecular Devices ImageXpress Micro Confocal Laser at 4× magnification. GFP (+) cells are counted and total GFP(+) cells or percent GFP(+) cells are plotted using Prism software (Graphpad). Cytotoxicity is determined by the ratio of DRAQ7 (+) Hoechst 33342 (+) to DRAQ7 (−) Hoechst 33342 (+) cells.
# [2] = Solubility of stapled lipopeptides in buffer (FIG. 18); format: physicochemical; conditions: 15 mg/mL in 15% DMSO, PBS pH 7.4
# Method: Buffer conditions are 15 mg/mL in 15% DMSO, PBS pH 7.4.
# [3] = pI of stapled lipopeptides; format: physicochemical
# [4] = GFP-RSV live virus, A549 cells, read-out at 48 hours (FIGS. 13, 16, 17), read-out: IC50, antiviral activity in live RSV virus assay
Compound,antiviral activity in the GFP-RSV live virus assay (staple and PEG scanning) [1],"IC50 [1, 4]",improvement in anti-viral activity compared to the singly stapled RSV HR2 peptide of SEQ ID NO: 4 [1],further results
"8DASISQXNEKINQSLAFIRKSDELLHNV* ([R8]DASISQ[S5]NEKINQSLAFIRKSDELLHNVK([PEG4′-thiocholesterol]); staple 1-8) [SEQ ID NO: 6, * =Lys(epsilon-(PEG)4-thiocholesterol)]",potent activity,–,–,–
CC[C@H](C)[C@H](NC(=O)[C@H](CO)NC(=O)[C@H](C)NC(=O)[C@H](CC(=O)O)NC(=O)[C@H](Cc1ccccc1)NC(C)=O)C(=O)N[C@@H](CO)C(=O)N[C@@H](CCC(N)=O)C(=O)N[C@H](C(=O)N[C@@H](CC(N)=O)C(=O)N[C@@H](CCC(=O)O)C(=O)N[C@@H](CCCCN)C(=O)N[C@H](C(=O)N[C@@H](CC(N)=O)C(=O)N[C@@H](CCC(N)=O)C(=O)N[C@@H](CO)C(=O)N[C@@H](CC(C)C)C(=O)N[C@]1(C)CCCCCCC=CCCC[C@@](C)(C(=O)N[C@@H](CC(C)C)C(=O)N[C@@H](CC(C)C)C(=O)N[C@@H](Cc2c[nH]cn2)C(=O)N[C@@H](CC(N)=O)C(=O)N[C@H](C(=O)N[C@@H](CCCCNC(=O)CCOCCOCCOCCOCCOCCOCCOCCOCCOCCOCCOCCOCCOCCOCCOCCOCCNC(=O)CS[C@H]2CC[C@@]3(C)C(=CC[C@H]4[C@@H]5CC[C@H]([C@H](C)CCCC(C)C)[C@@]5(C)CC[C@@H]43)C2)C(N)=O)C(C)C)NC(=O)[C@H](CC(=O)O)NC(=O)[C@H](CO)NC(=O)[C@H](CCCCN)NC(=O)[C@H](CCCNC(=N)N)NC(=O)[C@H]([C@@H](C)CC)NC(=O)[C@H](Cc2ccccc2)NC1=O)[C@@H](C)CC)C(C)C [PEG16-thiochol SEQ ID NO: 21] (Ac-FDASISQVNEKINQSL[R8]FIRKSD[S5]LLHNVK([PEG16-Acetyl(2-S-cholesteryl)])-NH2; staple 17-24),–,18 nM,–,–
CC[C@H](C)[C@H](NC(=O)[C@H](CO)NC(=O)[C@H](C)NC(=O)[C@H](CC(=O)O)NC(=O)[C@H](Cc1ccccc1)NC(C)=O)C(=O)N[C@@H](CO)C(=O)N[C@@H](CCC(N)=O)C(=O)N[C@H](C(=O)N[C@@H](CC(N)=O)C(=O)N[C@@H](CCC(=O)O)C(=O)N[C@@H](CCCCN)C(=O)N[C@H](C(=O)N[C@@H](CC(N)=O)C(=O)N[C@@H](CCC(N)=O)C(=O)N[C@@H](CO)C(=O)N[C@@H](CC(C)C)C(=O)N[C@]1(C)CCCCCCC=CCCC[C@@](C)(C(=O)N[C@@H](CC(C)C)C(=O)N[C@@H](CC(C)C)C(=O)N[C@@H](Cc2c[nH]cn2)C(=O)N[C@@H](CC(N)=O)C(=O)N[C@H](C(=O)N[C@@H](CCCCNC(=O)CCOCCOCCOCCOCCOCCOCCOCCOCCOCCOCCOCCOCCOCCOCCOCCOCCOCCOCCOCCOCCNC(=O)CS[C@H]2CC[C@@]3(C)C(=CC[C@H]4[C@@H]5CC[C@H]([C@H](C)CCCC(C)C)[C@@]5(C)CC[C@@H]43)C2)C(N)=O)C(C)C)NC(=O)[C@H](CC(=O)O)NC(=O)[C@H](CO)NC(=O)[C@H](CCCCN)NC(=O)[C@H](CCCNC(=N)N)NC(=O)[C@H]([C@@H](C)CC)NC(=O)[C@H](Cc2ccccc2)NC1=O)[C@@H](C)CC)C(C)C [PEG20-thichol SEQ ID NO: 21] (Ac-FDASISQVNEKINQSL[R8]FIRKSD[S5]LLHNVK([PEG20-Acetyl(2-S-cholesteryl)])-NH2; staple 17-24),–,8.2 nM,–,–
"CC[C@H](C)[C@H](NC(=O)[C@H](Cc1ccccc1)NC(=O)[C@H](C)NC(=O)[C@H](CC(C)C)NC(=O)[C@H](CO)NC(=O)[C@H](CCC(N)=O)NC(=O)[C@H](CC(N)=O)NC(=O)[C@@H](NC(=O)[C@H](CCCCN)NC(=O)[C@]1(C)CCCC=CCCCCCC[C@@](C)(NC(=O)[C@H](CC(=O)O)NC(=O)[C@H](Cc2ccccc2)NC(C)=O)C(=O)N[C@@H](CO)C(=O)N[C@@H]([C@@H](C)CC)C(=O)N[C@@H](CO)C(=O)N[C@@H](CCC(N)=O)C(=O)N[C@@H](C(C)C)C(=O)N[C@@H](CC(N)=O)C(=O)N1)[C@@H](C)CC)C(=O)N[C@@H](CCCNC(=N)N)C(=O)N[C@@H](CCCCN)C(=O)N[C@@H](CO)C(=O)N[C@@H](CC(=O)O)C(=O)N[C@@H](CCC(=O)O)C(=O)N[C@@H](CC(C)C)C(=O)N[C@@H](CC(C)C)C(=O)N[C@@H](Cc1c[nH]cn1)C(=O)N[C@@H](CC(N)=O)C(=O)N[C@H](C(=O)N[C@@H](CCCCNC(=O)CCOCCOCCOCCOCCNC(=O)CS[C@H]1CC[C@@]2(C)C(=CC[C@H]3[C@@H]4CC[C@H]([C@H](C)CCCC(C)C)[C@@]4(C)CC[C@@H]32)C1)C(N)=O)C(C)C [SEQ ID NO: 5, FD8SISQVNXKINQSLAFIRKSDELLHNV*] (Ac-FD[R8]SISQVN[S5]KINQSLAFIRKSDELLHNVK([PEG4-Acetyl(2-S-cholesteryl)])-NH2; staple 3-10)",potent activity,130 nM,an order of magnitude,"IC50 ([1]; live RSV virus (FIG. 13), read-out: IC50, infectivity assay using live RSV virus): 130 nM"
"CC[C@H](C)[C@H](NC(=O)[C@H](CO)NC(=O)[C@H](C)NC(=O)[C@H](CC(=O)O)NC(=O)[C@H](Cc1ccccc1)NC(C)=O)C(=O)N[C@@H](CO)C(=O)N[C@@H](CCC(N)=O)C(=O)N[C@H](C(=O)N[C@@H](CC(N)=O)C(=O)N[C@@H](CCC(=O)O)C(=O)N[C@@H](CCCCN)C(=O)N[C@H](C(=O)N[C@@H](CC(N)=O)C(=O)N[C@@H](CCC(N)=O)C(=O)N[C@@H](CO)C(=O)N[C@@H](CC(C)C)C(=O)N[C@]1(C)CCCCCCC=CCCC[C@@](C)(C(=O)N[C@@H](CC(C)C)C(=O)N[C@@H](CC(C)C)C(=O)N[C@@H](Cc2c[nH]cn2)C(=O)N[C@@H](CC(N)=O)C(=O)N[C@H](C(=O)N[C@@H](CCCCNC(=O)CCOCCOCCOCCOCCNC(=O)CSC2CC[C@@]3(C)C(=CC[C@H]4[C@@H]5CC[C@H]([C@H](C)CCCC(C)C)[C@@]5(C)CC[C@@H]43)C2)C(N)=O)C(C)C)NC(=O)[C@H](CC(=O)O)NC(=O)[C@H](CO)NC(=O)[C@H](CCCCN)NC(=O)[C@H](CCCNC(=N)N)NC(=O)[C@H]([C@@H](C)CC)NC(=O)[C@H](Cc2ccccc2)NC1=O)[C@@H](C)CC)C(C)C (stereo partly drawn) [SEQ ID NO: 21, FDASISQVNEKINQSL8FIRKSDXLLHNV*] (Ac-FDASISQVNEKINQSL[R8]FIRKSD[S5]LLHNVK([PEG4-Acetyl(2-S-3ξ-cholesteryl)])-NH2; staple 17-24)",–,–,–,solubility [2]: visible pellet; solubility ([2]; listed as SEQ ID NO:21): Poor solubility
"FDASISQVN8KINQSLXFIRKSDELLHNV* (FDASISQVNXKINQSLXFIRKSDELLHNVK; not fully specified; Lys(epsilon-(PEG)4-thiocholesterol); non-natural residues 8, X; SITE 10 (R)-alpha-(7'-octenyl)alanine; SITE 17 (S)-alpha-(4'-pentenyl)alanine; SITE 30 Residue side chain modified at the epsilon carbon with 4x polyethylene glycol attached to thiocholesterol) [SEQ ID NO: 14]",potent activity,–,–,–
"FDASISQVNEKINQSLAFI8KSDELLXNV* (FDASISQVNEKINQSLAFI[R8]KSDELL[S5]NVK([PEG4′-thiocholesterol]); staple 20-27 (inferred)) [SEQ ID NO: 24, * =Lys(epsilon-(PEG)4-thiocholesterol)]",potent activity,–,–,–
"PEG16-thiochol SEQ IQ NO: 5: SEQ ID NO:51 with PEG(n)-thiocholesterol linked via a C-terminal lysine, n is 16 (FDXSISQVNXKINQSLAFIRKSDELLHNVK; not fully specified; C-terminal Lys-PEG16-thiocholesterol; SITE 3 (R)-alpha-(7'-octenyl)alanine; SITE 10 (S)-alpha-(4'-pentenyl)alanine; SITE 30 Residue attached to 16x polyethylene glycol thiocholesterol)",–,49 nM,greater than two orders of magnitude,–
"PEG20-thiochol SEQ IQ NO: 5: SEQ ID NO:51 with PEG(n)-thiocholesterol linked via a C-terminal lysine, n is 20 (FDXSISQVNXKINQSLAFIRKSDELLHNVK; not fully specified; C-terminal Lys-PEG20-thiocholesterol; SITE 3 (R)-alpha-(7'-octenyl)alanine; SITE 10 (S)-alpha-(4'-pentenyl)alanine; SITE 30 Residue attached to 20x polyethylene glycol thiocholesterol)",–,60 nM,greater than two orders of magnitude,–
"SDEFDASISQVNEKINQSL8FIRKSDXLLHNV* (SDEFDASISQVNEKINQSL[R8]FIRKSD[S5]LLHNV; staple 20-27; also: C-terminal linker-lipid (*), exact composition not fixed) [SEQ ID NO: 281]",–,–,–,solubility [2]: fully soluble; solubility ([2]; listed as SEQ ID NO:21 with three native N-terminal residues “SDE”): complete solubility; pI [3]: 4.7
